Source: US20070197957A1, “Implantable sensors, implantable pumps and anti-scarring drug combinations” (priority 2005, published 2007)

Key:
E. coli UB1005 C498 = experiment: MIC by microtitre broth dilution; type: cell-based; details: Mueller Hinton broth, 37° C., 24 h, aerobic
Description: (§1) MIC assays were conducted essentially as described by Amsterdam, D. 1996, “Susceptibility testing of antimicrobials in liquid media”, p. 52-111, in Loman, V., ed. Antibiotics in laboratory medicine, 4th ed. Williams and Wilkins, Baltimore, Md.

[1] = test system: K. pneumoniae ATCC13883 C238; experiment: MIC by microtitre broth dilution; type: cell-based; details: Mueller Hinton broth, 37° C., 24 h, aerobic
Description: as §1

S. epidermidis C621 = experiment: MIC by microtitre broth dilution; type: cell-based; details: Mueller Hinton broth, 37° C., 24 h, aerobic
Description: as §1

S. aureus ATCC25923 C622 = experiment: MIC by microtitre broth dilution; type: cell-based; details: Mueller Hinton broth, 37° C., 24 h, aerobic
Description: as §1

S. pyogenes C721 = experiment: MIC by microtitre broth dilution; type: cell-based; details: Todd Hewitt broth, 37° C., 24 h, aerobic
Description: as §1

[2] = test system: P. aeruginosa PAE/K799 H187; experiment: MIC by microtitre broth dilution; type: cell-based; details: Mueller Hinton broth, 37° C., 24 h, aerobic
Description: as §1

[3] = potentiation of immunosuppressive agents
C. glabrata = experiment: antifungal activity against C. glabrata; type: cell-based
[4] = cited from earlier work; for solubility in alcohol / ethanol: alcohol or ethanol
[5] = test system: carrageenan-induced paw edema; experiment: Rat carrageenan-induced paw edema model, paw swelling; type: in vivo; details: amoxapine alone at 2.26 mg/kg
Description: A dose-range finding study was performed to determine the anti-inflammatory activity of various ratios of methyl prednisolone acetate and amoxapine in a rat carrageenan-induced paw edema model. […] The molar ratio of methyl prednisolone acetate to amoxapine ranged from 1:1 to 1:300, using total doses of methyl prednisolone acetate of 0.01, 0.03 or 0.1 mg/kg.
The test agent (a combination of methyl prednisolone acetate and amoxapine), vehicle control, or reference agents (methyl prednisolone acetate, amoxapine, or Depo-Medrol®) were administered in the left hind foot pad of rats. After 60 minutes, paw edema was induced by injection of 100 μl of 1% carrageenan in the same foot pad. The paw volume was measured with a water displacement plethysmometer immediately prior to test agent injection (T-1h), at the time of carrageenan injection (T0h), and at T6h. Animals were euthanized by carbon dioxide inhalation. Paw tissue samples were collected and flash frozen in liquid nitrogen. Samples were assayed for TNF-α by enzyme-linked immunoassay (ELISA).

[6] = chronic in vivo arthritis model (adjuvant model), joint swelling; details: amoxapine alone or reduced dose prednisolone alone
p38 and JNK = p38 and JNK activation; type: cell-based
TNF-α = experiment: acute in vivo model of inflammation (LPS-induced TNF-α production); details: amoxapine alone or reduced dose prednisolone alone
NFAT = NFAT activation, translocation and transactivation; type: cell-based
glucocorticoid receptor = target: T1, glucocorticoid receptor (Homo sapiens, UniProt P04150); experiment: glucocorticoid receptor trafficking (mechanism study); type: cell-based
T1 construct: host or cells: T cells are named only for the GRE reporter experiment in the same sentence

GRE reporter plasmid = experiment: transactivation of a transfected GRE reporter plasmid in T cells; type: cell-based
ERK = ERK activation; type: cell-based
NFkB and AP1 = NFkB and AP1 activation; type: cell-based
[7] = target: protein tyrosine phosphatase 1B (PTP1B) (Homo sapiens, UniProt P18031); details: cited from earlier work
[8] = test system: phosphatases of regenerating liver (PRL); details: cited from earlier work
endo-exonuclease = details: cited from earlier work

T1 sequence (P04150 whole entry, species assumed): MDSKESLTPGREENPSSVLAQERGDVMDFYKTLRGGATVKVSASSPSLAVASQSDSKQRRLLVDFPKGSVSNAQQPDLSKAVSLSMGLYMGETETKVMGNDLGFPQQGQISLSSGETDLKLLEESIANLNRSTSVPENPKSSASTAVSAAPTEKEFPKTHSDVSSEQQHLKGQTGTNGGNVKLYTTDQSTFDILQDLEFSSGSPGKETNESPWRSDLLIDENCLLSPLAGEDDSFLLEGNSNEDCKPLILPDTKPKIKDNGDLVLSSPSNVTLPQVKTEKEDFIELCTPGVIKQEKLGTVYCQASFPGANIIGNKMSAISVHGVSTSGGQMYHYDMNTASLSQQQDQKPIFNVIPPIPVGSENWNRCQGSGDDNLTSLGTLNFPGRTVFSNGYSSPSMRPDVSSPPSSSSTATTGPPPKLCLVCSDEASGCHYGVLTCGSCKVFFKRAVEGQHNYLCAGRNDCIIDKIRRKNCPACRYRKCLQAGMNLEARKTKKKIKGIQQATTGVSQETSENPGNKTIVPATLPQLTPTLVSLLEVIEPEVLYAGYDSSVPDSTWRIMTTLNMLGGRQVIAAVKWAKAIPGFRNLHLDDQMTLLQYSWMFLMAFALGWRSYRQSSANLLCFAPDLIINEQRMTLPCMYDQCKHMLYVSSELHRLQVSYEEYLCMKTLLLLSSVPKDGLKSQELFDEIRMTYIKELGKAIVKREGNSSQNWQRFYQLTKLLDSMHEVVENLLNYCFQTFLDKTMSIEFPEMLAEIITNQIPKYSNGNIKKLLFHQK
Chain of protein tyrosine phosphatase 1B (PTP1B) (P18031 whole entry): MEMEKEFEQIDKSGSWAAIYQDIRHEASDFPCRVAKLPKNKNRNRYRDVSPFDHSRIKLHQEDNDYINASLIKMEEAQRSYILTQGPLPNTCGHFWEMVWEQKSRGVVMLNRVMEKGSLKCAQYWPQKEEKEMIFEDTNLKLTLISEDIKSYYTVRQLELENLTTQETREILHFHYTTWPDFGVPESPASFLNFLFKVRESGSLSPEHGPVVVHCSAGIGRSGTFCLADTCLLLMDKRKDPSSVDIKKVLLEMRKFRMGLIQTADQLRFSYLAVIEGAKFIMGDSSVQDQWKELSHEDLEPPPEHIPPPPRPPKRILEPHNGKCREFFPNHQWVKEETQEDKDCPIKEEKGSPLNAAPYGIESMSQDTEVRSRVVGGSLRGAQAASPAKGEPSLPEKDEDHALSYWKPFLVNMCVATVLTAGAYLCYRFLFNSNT

Row | Compound | Minimum inhibitory concentration, E. coli UB1005 C498 wt Gram− (E. coli UB1005 C498) | Minimum inhibitory concentration, K. pneumoniae ATCC13883 C238 wt Gram− [1] | Minimum inhibitory concentration, S. epidermidis C621 wt Gram+ (S. epidermidis C621) | Minimum inhibitory concentration, S. aureus ATCC25923 C622 wt Gram+ (S. aureus ATCC25923 C622) | Minimum inhibitory concentration, S. pyogenes C721 wt Gram+ (S. pyogenes C721) | Minimum inhibitory concentration, P. aeruginosa PAE/K799 H187 Wt Gram− [2] | other results
1 | O=C1c2c(O)ccc(O)c2C(=O)c2c(NCCNCCO)ccc(NCCNCCO)c21 [mitoxantrone] | 10^−5 Molar | 10^−6 Molar | 10^−5 Molar | 10^−5 Molar | 10^−6 Molar | 10^−5 Molar | –
2 | CCN(CC)C(C)CN1c2ccccc2Sc2ccccc21 (centres unmarked) [Ethopropazine, ethopropazine] | – | – | – | – | – | – | effect on potency of an immunosuppressive agent (e.g. cyclosporine) [3]: increases the potency
3 | Sc1ncc2[nH]cnc2n1 [2-mercaptopurine] | N | N | N | N | N | N | –
4 | COc1cc([C@@H]2c3cc4c(cc3[C@@H](O[C@@H]3O[C@@H]5CO[C@@H](C)O[C@H]5[C@H](O)[C@H]3O)[C@H]3COC(=O)[C@H]23)OCO4)cc(OC)c1O [etoposide] | N | 10^−5 Molar | 10^−6 Molar | 10^−5 Molar | 10^−5 Molar | N | –
5 | Nc1ccn([C@@H]2O[C@H](CO)[C@@H](O)[C@@H]2O)c(=O)n1 [Cytarabine, cytarabine] | N | N | N | N | N | N | –
6 | NC(=O)NO [hydroxyurea] | N | N | N | N | 10^−4 Molar | 10^−4 Molar | –
7 | CC[C@H](C)C[C@H](C)CCCCCCCCC(=O)N[C@H]1C[C@@H](O)[C@@H](NCCN)NC(=O)[C@@H]2[C@@H](O)CCN2C(=O)[C@H]([C@H](O)CCN)NC(=O)[C@H]([C@H](O)[C@@H](O)c2ccc(O)cc2)NC(=O)[C@@H]2C[C@@H](O)CN2C(=O)[C@H]([C@@H](C)O)NC1=O [caspofungin] | – | – | – | – | – | – | enhancement of antifungal activity by a manganese compound (C. glabrata): enhances
8 | CCC(C)n1ncn(-c2ccc(N3CCN(c4ccc(OC[C@H]5CO[C@](Cn6cncn6)(c6ccc(Cl)cc6Cl)O5)cc4)CC3)cc2)c1=O (mixture of isomers) [itraconazole] | – | – | – | – | – | – | enhancement of antifungal activity by a manganese compound (C. glabrata): enhances
9 | NC(=O)c1ncn([C@@H]2O[C@H](CO)[C@@H](O)[C@H]2O)n1 [Ribavirin, ribavirin] | – | – | – | – | – | – | solubility in alcohol / ethanol [4]: only slightly soluble
10 | CNCCCC12CCC(c3ccccc31)c1ccccc12 [maprotiline] | – | – | – | – | – | – | effect on potency of an immunosuppressive agent (e.g. cyclosporine) [3]: increases the potency
11 | CN(Cc1cnc2nc(N)nc(N)c2n1)c1ccc(C(=O)N[C@@H](CCC(=O)O)C(=O)O)cc1 [methotrexate] | N | 10^−6 Molar | N | 10^−5 Molar | 10^−6 Molar | N | –
12 | CC[C@@]1(O)C(=O)OCc2c1cc1n(c2=O)Cc2cc3ccccc3nc2-1 [camptothecin] | N | N | 10^−4 Molar | N | N | N | –
13 | Nc1ncnc2c1ccn2[C@@H]1O[C@H](CO)[C@@H](O)[C@H]1O [tubercidin] | N | N | N | N | N | N | –
14 | O=c1[nH]cc(F)c(=O)[nH]1 [5-fluorouracil] | 10^−6 Molar | 10^−6 Molar | 10^−7 Molar | 10^−7 Molar | 10^−4 Molar | 10^−5 Molar | –
15 | Sc1ncnc2nc[nH]c12 [6-mercaptopurine] | N | N | N | N | N | N | –
16 | CN(C/C=C/C#CC(C)(C)C)Cc1cccc2ccccc12.Cl [terbinafine] | – | – | – | – | – | – | enhancement of antifungal activity by a manganese compound (C. glabrata): enhances
17 | OC(Cn1cncn1)(Cn1cncn1)c1ccc(F)cc1F [fluconazole] | – | – | – | – | – | – | enhancement of antifungal activity by a manganese compound (C. glabrata): enhances
18 | Oc1cc(Cl)ccc1Oc1ccc(Cl)cc1Cl [triclosan] | – | – | – | – | – | – | effect on potency of an immunosuppressive agent (e.g. cyclosporine) [3]: increases the potency
19 | COc1cccc2c1C(=O)c1c(O)c3c(c(O)c1C2=O)C[C@@](O)(C(=O)CO)C[C@@H]3O[C@H]1C[C@H](N)[C@H](O)[C@H](C)O1 [doxorubicin] | 10^−4 Molar | 10^−6 Molar | 10^−6 Molar | 10^−5 Molar | 10^−7 Molar | 10^−5 Molar | –
20 | Clc1ccc2c(c1)C(N1CCNCC1)=Nc1ccccc1O2 [amoxapine] | – | – | – | – | – | – | paw edema compared with vehicle treatment, in words [5]: not significantly different from the vehicle treatment; benefit of the single agent [6]: modest or no benefit; effect on p38 and JNK activation (p38 and JNK): Inhibition; benefit of the single agent (TNF-α): modest or no benefit; effect on NFAT activation, translocation and transactivation (NFAT): block; promotion of glucocorticoid receptor trafficking (glucocorticoid receptor): does not promote; potentiation of prednisolone's ability to transactivate a GRE reporter plasmid (GRE reporter plasmid): does not potentiate; effect on ERK activation (ERK): unaffected; effect on NFkB and AP1 activation (NFkB and AP1): partially inhibits
21 | N.N.[Cl][Pt][Cl] [cisplatin] | N | N | N | N | N | 10^−4 Molar | –
22 | CN(C)C(=O)C(CCN1CCC(O)(c2ccc(Cl)cc2)CC1)(c1ccccc1)c1ccccc1 [Loperamide] | – | – | – | – | – | – | effect on potency of an immunosuppressive agent (e.g. cyclosporine) [3]: increase the potency
23 | N=C(N)c1ccc(OCCCCCOc2ccc(C(=N)N)cc2)cc1 [pentamidine] | – | – | – | – | – | – | inhibition of PTP1B [7]: effective inhibitor; inhibition of oncogenic phosphatases of regenerating liver (PRL) [8]: potent inhibitor; inhibition of endo-exonuclease activity (endo-exonuclease): inhibit
24 | Nc1ccc(/N=N/c2ccccc2)c(N)n1 [Phenazopyridine, phenazopyridine] | – | – | – | – | – | – | solubility in alcohol / ethanol [4]: slightly soluble in water and alcohol; solubility in water ([4]; water): slightly soluble in water and alcohol
